Measured values as given in US20220168304A1, “METHODS FOR TREATING CYSTIC FIBROSIS” (CHILDREN'S HOSPITAL MEDICAL CENTER, priority 2017, published 2022).

Tests used:
[1] = tested on: human duodenal organoids; assay: Fluid secretion by forskolin-induced swelling (FIS) of human duodenal organoids; format: cell-based; conditions: FIG. 3; 0.1 micromolar saracatinib; forskolin 10 μM, 120 min; FSK vs no FSK significant, p value of 0.01
Procedure: (§1) Mouse intestinal organoids were cultured as described previously (DALTON et al., “New model of cystic fibrosis transmembrane conductance regulator proposes active channel-lik ? Inf Model (2012) Vol. 52, pp. 1842-1853). Human duodenal crypt isolation and enteroid expansion was performed as described previously (<<https://www.jove.com/video/52483/establishment-human-epithelial-enteroids-colonoids-from-whole-tissue>>) with some adaptations. Briefly, fresh biopsy is rinsed in ice-cold Dulbecco's Phosphate buffered saline without Ca^2+ and Mg^2+ (DPBS, Gibco), mounted and immersed in DPBS in a silica gel coated petri-dish using minutien pins with the mucosal side facing up.
Mucosa is gently scraped with curved forceps to remove villi and debris followed by 3-4 washes with DPBS. Crypts were dissociated using 2 mM EDTA (30 min, 4° C. with gentle shaking) followed by gentle scraping of the mucosa. The crypt suspension was filtered through a 150 μm nylon mesh twice and pelleted at 50×g, 4° C. The crypt pellet was resuspended in matrigel matrix (200 to 500 crypts/50 μl matrigel per well of a 24 well plate). […]
Fluid Secretion by forskolin-induced swelling (FIS) of human duodenal organoids (A) representative images (bar=20 micrometers) and (B) quantitation of fluid secretion.

[2] = tested on: mouse intestinal organoids; assay: Fluid secretion by forskolin-induced swelling (FIS) of mouse intestinal organoids; format: cell-based; conditions: FIG. 4; 0.1 micromolar saracatinib; forskolin 10 μM, 30 min; FSK vs no FSK significant, p value of 0.01
Procedure: as §1
Isolation of intestinal spheres and measurement of fluid secretion were performed as described previously (MOON et al., “Compartmentalized accumulation of cAMP near complexes of multidrug resistance protein 4 (MRP4) and cystic fibrosis transmembrane conductance regulator (CFTR) contributes to drug-induced diarrhea.” J Biol Chem (2015) Vol. 290, pp. 11246-11257). Day 1-4 intestinal organoids were treated with 0.1-10 μM of the test compound for 24 h before stimulation of CFTR function using forskolin (10 μM). […]
Fluid Secretion by forskolin-induced swelling (FIS) of mouse intestinal organoids (A) representative images (bar=20 micrometers) and (B) quantitation of fluid secretion.

In the case of `CN1CCN(CCOc2cc(OC3CCOCC3)c3c(Nc4c(Cl)ccc5c4OCO5)ncnc3c2)CC1` [saracatinib, N-(5-chloro-1,3-benzodioxol-4-yl)-7-[2-(4-methyl-1-piperazinyl)ethoxy]-5-[(tetrahydro-2H-pyran-4-yl)oxy]-4-quinazolinamine], the “Fluid secretion (forskolin-induced swelling, FIS)” value [1] is reported as “fluid secretion occurs when saracatinib is added” and the “Fluid secretion (forskolin-induced swelling, FIS)” value [2] is reported as “fluid secretion occurs when saracatinib is added”.
